# Experimental data: ChEMBL document CHEMBL1201862, “PubChem BioAssay data set” (2004)
#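 96-well plates; 48 h exposure; 5 concentrations. Endpoints by linear interpolation between flanking doses. Not reached: highest tested concentration assigned. GI50 marks 50% less growth.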 Calls of active or inactive are those of the source. Cut-off read from the data, not from the text of the source: active = GI50 up to about 1.1 µM and inactive = higher.
# What was measured:
# Experiment in all cases: inhibition of tumour cell growth, NCI panel, 48 h
# DMS-273 = system: DMS-273
# XF498 = system: XF498
# DLD-1 = system: DLD-1
# HOP-18 = system: HOP-18
# M19-MEL = system: M19-MEL
# LXFL 529 = system: LXFL 529
# DMS-114 = system: DMS-114
# KM-20L2 = system: KM-20L2
# RXF 631 = system: RXF 631
SMILES,GI50 (DMS-273),GI50 (XF498),GI50 (DLD-1),GI50 (HOP-18),GI50 (M19-MEL),GI50 (LXFL 529),GI50 (DMS-114),GI50 (KM-20L2),GI50 (RXF 631)
CC1=NN(C(=O)Cc2ccccc2)C(=O)/C1=C\C=C\c1ccccc1,> 100 µM (inactive),> 100 µM (inactive),> 100 µM (inactive),14.8 µM (inactive),,,,,
O=C(O)CP(=S)(S)c1ccccc1 (stereo not drawn),> 100 µM (inactive),> 100 µM (inactive),> 100 µM (inactive),,> 100 µM (inactive),> 100 µM (inactive),> 100 µM (inactive),> 10 µM (inactive),
COc1ccc2c([nH]c3c(O)c(-c4c(C)cc5c([nH]c6c(CC=C(C)C)c(OC)ccc65)c4O)c(C)cc32)c1CC=C(C)C [BISMURRAYAFOLINE B],> 100 µM (inactive),,> 100 µM (inactive),> 100 µM (inactive),> 100 µM (inactive),> 100 µM (inactive),> 100 µM (inactive),> 100 µM (inactive),
C=C(CCCCCCCCC)CC(=O)SCCNC(=O)CCNC(=O)C(O)C(C)(C)COP(=O)(O)OP(=O)(O)OCC1OC(n2cnc3c(N)ncnc32)C(O)C1OP(=O)(O)O (stereo not drawn),21 µM (inactive),50 µM (inactive),42.9 µM (inactive),29.4 µM (inactive),29.8 µM (inactive),56.2 µM (inactive),55.3 µM (inactive),> 100 µM (inactive),55.2 µM (inactive)
COc1ccc(S(=O)(=O)N/N=C/c2cc(I)cc([N+](=O)[O-])c2O)cc1OC,35.2 µM (inactive),24.1 µM (inactive),36.3 µM (inactive),21.6 µM (inactive),33 µM (inactive),27 µM (inactive),,> 100 µM (inactive),38.8 µM (inactive)
COC1=CC23C=CC1[C@@H](c1ccccc1)C2=C(C)C(=O)N3C(=O)NC1CCCCC1 (stereo partly drawn),,,,,,,,22.2 µM (inactive),
COc1cc(C(C)c2cc3c(cc2OCCCCOc2cc4c(cc2C(C)c2cc(OC)c(OC)c(OC)c2)OCO4)OCO3)cc(OC)c1OC (stereo not drawn),,27.6 µM (inactive),35.6 µM (inactive),,38.4 µM (inactive),33.3 µM (inactive),15.9 µM (inactive),> 100 µM (inactive),39.7 µM (inactive)
c1cc2c(cnc3cscc32)s1,> 100 µM (inactive),11 µM (inactive),> 100 µM (inactive),,> 100 µM (inactive),,> 100 µM (inactive),,> 100 µM (inactive)
CCCCCCCCCCCC(=O)OCC1OC(n2cc(F)c(=O)[nH]c2=O)C(N)C(O)C1O (stereo not drawn),> 100 µM (inactive),,71.8 µM (inactive),88.9 µM (inactive),> 100 µM (inactive),> 100 µM (inactive),> 100 µM (inactive),91.4 µM (inactive),
C1=CC=C2NCCOCC/N=C3/C=CC=CC=C3NCCOCC/N=C\2C=C1,> 100 µM (inactive),,> 100 µM (inactive),> 100 µM (inactive),> 100 µM (inactive),40.1 µM (inactive),46.6 µM (inactive),21.6 µM (inactive),30 µM (inactive)
CC1CC(c2ccc([N+](=O)[O-])cc2)=Nc2ccccc2S1 (stereo not drawn),20.2 µM (inactive),31.6 µM (inactive),12.9 µM (inactive),> 100 µM (inactive),13.8 µM (inactive),13.3 µM (inactive),17.4 µM (inactive),18.4 µM (inactive),
O=C1C2Cc3ccccc3CN2C(=O)N1CN1CCN(CN2C(=O)C3Cc4ccccc4CN3C2=O)CC1 (stereo not drawn),> 100 µM (inactive),,> 100 µM (inactive),> 100 µM (inactive),> 100 µM (inactive),,> 100 µM (inactive),> 100 µM (inactive),> 100 µM (inactive)
NC(=O)N/N=C(\C(=O)C(=O)Nc1ccc(Cl)c(C(F)(F)F)c1)c1nc2ccc(C(=O)c3ccccc3)cc2nc1O,> 100 µM (inactive),9.62 µM (inactive),,23.7 µM (inactive),> 100 µM (inactive),,68.4 µM (inactive),> 100 µM (inactive),
CC1(C)CCc2cc3c(cc2O1)OC(C)(C)C1c2c(ccc4c2CCC(C)(C)O4)OC31 (stereo not drawn),> 100 µM (inactive),> 100 µM (inactive),> 100 µM (inactive),< 0.01 µM (active),> 100 µM (inactive),> 100 µM (inactive),98.4 µM (inactive),,
Oc1cc(-c2c[nH]c3ccccc23)nc2cc3c(cc12)OCO3,> 100 µM (inactive),41.6 µM (inactive),> 100 µM (inactive),,> 100 µM (inactive),> 100 µM (inactive),> 100 µM (inactive),> 100 µM (inactive),> 100 µM (inactive)
C/C(=N\N(C)C)C(CN1CCCCC1)C(c1ccccc1)c1c(O)c2ccccc2oc1=O (stereo not drawn),> 100 µM (inactive),74.1 µM (inactive),> 100 µM (inactive),> 100 µM (inactive),> 100 µM (inactive),> 100 µM (inactive),> 100 µM (inactive),> 100 µM (inactive),> 100 µM (inactive)
Cc1ccc(NS(=O)(=O)c2cc(C(C)(C)C)ccc2OCCOCCOCCOc2ccc(C(C)(C)C)cc2S(=O)(=O)Nc2ccc(C)cc2)cc1,> 100 µM (inactive),,> 100 µM (inactive),> 100 µM (inactive),> 100 µM (inactive),,> 100 µM (inactive),,
COC(=O)C1=C(C)N(NC(N)=O)C2(N)N(NC(N)=O)C(C)=C(C(=O)OC)C12C#N (stereo not drawn),> 100 µM (inactive),> 100 µM (inactive),> 100 µM (inactive),> 100 µM (inactive),> 100 µM (inactive),,> 100 µM (inactive),> 100 µM (inactive),> 100 µM (inactive)
S=c1nc2c(c[nH]1)C1c3ccccc3C2c2ccccc21,> 100 µM (inactive),,,,> 100 µM (inactive),> 100 µM (inactive),62.2 µM (inactive),> 100 µM (inactive),
CC1=C(C(=O)Nc2ccc([N+](=O)[O-])cc2)C(c2cccc([N+](=O)[O-])c2)C(C(=O)Nc2ccc([N+](=O)[O-])cc2)=C(C)N1,,2.87 µM (inactive),9.66 µM (inactive),> 100 µM (inactive),23 µM (inactive),8.53 µM (inactive),8.53 µM (inactive),16.6 µM (inactive),> 100 µM (inactive)
Nc1ncnc2c1ncn2CC(O)CO (stereo not drawn),> 100 µM (inactive),,> 100 µM (inactive),> 100 µM (inactive),> 100 µM (inactive),> 100 µM (inactive),> 100 µM (inactive),,> 100 µM (inactive)
O=c1ccn(C2(CO)C=C(CO)C(O)C2O)c(=O)[nH]1 (stereo not drawn),> 25.7 µM (inactive),,> 25.7 µM (inactive),> 25.7 µM (inactive),> 25.7 µM (inactive),> 25.7 µM (inactive),> 25.7 µM (inactive),> 25.7 µM (inactive),> 25.7 µM (inactive)
CC(C)(C)C1CCC2(CC1)c1[nH]c3ccccc3c1C1(CCC(C(C)(C)C)CC1)c1[nH]c3ccccc3c12 (stereo not drawn),> 100 µM (inactive),> 100 µM (inactive),> 100 µM (inactive),> 100 µM (inactive),> 100 µM (inactive),> 100 µM (inactive),25.9 µM (inactive),> 100 µM (inactive),
N#Cc1cccc(/C=N/C23CC4CC(CC(C4)C2)C3)c1,> 100 µM (inactive),,,,> 100 µM (inactive),,> 100 µM (inactive),> 100 µM (inactive),
CON1C(=O)C2(CCCCC2)C(=O)C12C=CC(C)CC2 (stereo not drawn),> 100 µM (inactive),> 100 µM (inactive),,,> 100 µM (inactive),> 100 µM (inactive),46.7 µM (inactive),> 100 µM (inactive),> 100 µM (inactive)
COC(=O)C1=C(c2ccc(OC)c(OC)c2)OC(c2cc(OC)c(OC)c(OC)c2)C1 (stereo not drawn),18.7 µM (inactive),24.5 µM (inactive),2.12 µM (inactive),61.7 µM (inactive),> 100 µM (inactive),0.711 µM (active),37.6 µM (inactive),> 100 µM (inactive),94.2 µM (inactive)
COC12CC(O)=C(C(C)=O)C(=O)C1(C)c1c(OC(C)=O)c(C)c(O)c(C(C)=O)c1O2 (stereo not drawn),,14.8 µM (inactive),,5.11 µM (inactive),23.2 µM (inactive),14.3 µM (inactive),21.3 µM (inactive),16.7 µM (inactive),21.2 µM (inactive)
COc1cc(/C=C2\CCC(C)(CN(C)C)C2=O)cc(OC)c1OC (stereo not drawn),> 100 µM (inactive),> 100 µM (inactive),> 89.1 µM (inactive),> 100 µM (inactive),> 100 µM (inactive),> 100 µM (inactive),99.5 µM (inactive),> 64.9 µM (inactive),
